Measured values from patent US6143759A, “Tetrazoles” (BYK Gulden Lomberg Chemische Fabrik GmbH, priority 1997, dated 2000).
Structures can show the parent of a compound that is named as a salt.

How the values were obtained:
[1] = molecular target: PDE4; test: Inhibition of PDE isoenzymes: PDE4 (cAMP-specific), cytosol of human polymorphonuclear leukocytes, cAMP as substrate; format: biochemical; conditions: cytosol of human PMNL; 0.5 μM cAMP; motapizone (1 μM) present; pH 7.4, 37° C., 15 min
[2] = molecular target: T1, PDE3 (Homo sapiens, UniProt Q14432); test: Inhibition of PDE isoenzymes: PDE3 (cGMP-inhibited), homogenates of human blood platelets; format: biochemical; conditions: cAMP or cGMP as substrate, 0.5 μM, pH 7.4, 37° C., 15 min; for IC50: read-out: PDE3 -log IC50 (converted)
T1 construct: were investigated in homogenates of human blood platelets; from tissue; host or cells: homogenates of human blood platelets
T1 sequence (Q14432 whole entry): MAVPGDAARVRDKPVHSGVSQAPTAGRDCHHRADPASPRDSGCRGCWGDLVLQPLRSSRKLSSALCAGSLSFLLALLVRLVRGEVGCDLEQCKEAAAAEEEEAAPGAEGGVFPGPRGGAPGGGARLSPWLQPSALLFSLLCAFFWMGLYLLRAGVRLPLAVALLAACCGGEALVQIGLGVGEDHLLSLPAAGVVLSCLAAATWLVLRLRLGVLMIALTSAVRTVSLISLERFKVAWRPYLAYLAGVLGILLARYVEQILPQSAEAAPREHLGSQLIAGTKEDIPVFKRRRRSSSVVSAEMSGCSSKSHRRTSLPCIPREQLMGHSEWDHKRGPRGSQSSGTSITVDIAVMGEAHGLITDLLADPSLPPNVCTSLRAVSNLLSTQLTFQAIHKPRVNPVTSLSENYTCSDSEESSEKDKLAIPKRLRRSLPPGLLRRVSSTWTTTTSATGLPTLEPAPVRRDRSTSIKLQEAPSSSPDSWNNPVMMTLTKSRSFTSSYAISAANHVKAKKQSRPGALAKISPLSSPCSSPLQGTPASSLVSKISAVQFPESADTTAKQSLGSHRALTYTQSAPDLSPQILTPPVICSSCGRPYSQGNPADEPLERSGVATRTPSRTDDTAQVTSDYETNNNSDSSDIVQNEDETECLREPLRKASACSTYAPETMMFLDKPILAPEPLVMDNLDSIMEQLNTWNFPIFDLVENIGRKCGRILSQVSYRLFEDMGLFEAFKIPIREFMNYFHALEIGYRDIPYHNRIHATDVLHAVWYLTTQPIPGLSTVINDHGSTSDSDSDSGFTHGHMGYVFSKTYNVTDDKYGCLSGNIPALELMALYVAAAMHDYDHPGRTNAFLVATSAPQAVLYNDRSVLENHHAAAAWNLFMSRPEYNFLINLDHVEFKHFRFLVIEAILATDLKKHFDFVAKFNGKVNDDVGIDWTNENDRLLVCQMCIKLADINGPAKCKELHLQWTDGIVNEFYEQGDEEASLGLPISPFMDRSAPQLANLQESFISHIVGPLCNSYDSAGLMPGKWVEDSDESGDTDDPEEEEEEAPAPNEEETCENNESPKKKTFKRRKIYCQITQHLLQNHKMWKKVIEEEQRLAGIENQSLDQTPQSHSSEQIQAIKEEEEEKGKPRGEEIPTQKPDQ

| PDE4 -log IC50 [1] | IC50 [2] | PDE3 -log IC50 [2] | SMILES |
| --- | --- | --- | --- |
| 6.42 mol/l | 166 nM | – | COc1cc2c(cc1OC)[C@@H]1CN(C)CC[C@@H]1N=C2c1ccc(-c2nn[nH]n2)cc1 (single isomer, unassigned) [Compound 1, (-)-cis-8,9-Dimethoxy-2-methyl-6-[4-(1H- and 2H-tetrazol-5-yl)phenyl]-1,2,3,4,4a,10b-hexahydrobenzo[c][1,6]naphthyridine] |
| 6.13 mol/l | 457 nM | – | CCn1nnc(-c2ccc(C3=N[C@H]4CCN(C)C[C@H]4c4cc(OC)c(OC)cc43)cc2)n1 (single isomer, unassigned) [Compound 2, (-)-cis-8,9-Dimethoxy-2-methyl-6-[4-(2H-2-ethyltetrazol-5-yl)phenyl]-1,2,3,4,4a,10b-hexahydrobenzo[c][1,6]naphthyridine hydrochloride] |
| 7.64 mol/l | 209 nM | – | CCOc1cc2c(cc1OCC)[C@@H]1CN(C)CC[C@@H]1N=C2c1ccc(-c2nnn(CC)n2)cc1 (single isomer, unassigned) [Compound 3, (-)-cis-8,9-Diethoxy-2-methyl-6-[4-(2H-2-ethyltetrazol-5-yl)phenyl]-1,2,3,4,4a,10b-hexahydrobenzo[c][1,6]naphthyridine hydrochloride] |
| 5.92 mol/l | 355 nM | – | COc1cc2c(cc1OC)[C@@H]1CN(C)CC[C@@H]1N=C2c1ccc(-c2nnn(C)n2)cc1 (single isomer, unassigned) [Compound 4, (-)-cis-8,9-Dimethoxy-2-methyl-6-[4-(2H-2-methyltetrazol-5-yl)phenyl]-1,2,3,4,4a,10b-hexahydrobenzo[c][1,6]naphthyridine] |
| 8.03 mol/l | 204 nM | – | CCOc1cc2c(cc1OCC)[C@@H]1CN(C)CC[C@@H]1N=C2c1ccc(-c2nnn(Cc3ccc(OC)cc3)n2)cc1 (single isomer, unassigned) [Compound 5, (-)-cis-8,9-Diethoxy-2-methyl-6-[[4-[2H-2-(4-methoxybenzyl)tetrazol-5-yl]-phenyl]]-1,2,3,4,4a,10b-hexahydrobenzo[c][1,6]naphthyridine hydrochloride] |
| 7.26 mol/l | – | 6.52 mol/l | CCOc1cc2c(cc1OCC)[C@@H]1CN(C)CC[C@@H]1N=C2c1ccc(-c2nnn(C)n2)cc1 (single isomer, unassigned) [Compound 6, (-)-cis-8,9-Diethoxy-2-methyl-6-[4-(2H-2-methyltetrazol-5-yl)phenyl]-1,2,3,4,4a,10b-hexahydrobenzo[c][1,6]naphthyridine hydrochloride] |
| 6.74 mol/l | 148 nM | – | COc1ccc(Cn2nnc(-c3ccc(C4=N[C@H]5CCN(C)C[C@H]5c5cc(OC)c(OC)cc54)cc3)n2)cc1 (single isomer, unassigned) [Compound 7, (-)-cis-8,9-Dimethoxy-2-methyl-6-[[4-[2H-2-(4-methoxybenzyl)tetrazol-5-yl]phenyl]]-1,2,3,4,4a,10b-hexahydrobenzo[c][1,6]naphthyridine hydrochloride] |
| 7.64 mol/l | 309 nM | – | CCOc1cc2c(cc1OCC)[C@@H]1CN(C)CC[C@@H]1N=C2c1ccc(-c2nnn(CC3CCCCC3)n2)cc1 (single isomer, unassigned) [Compound 8, (-)-cis-8,9-Diethoxy-2-methyl-6-[4-(2H-2-cyclohexylmethyltetrazol-5-yl)phenyl]-1,2,3,4,4a,10b-hexahydrobenzo[c][1,6]naphthyridine hydrochloride] |
| 7.96 mol/l | 148 nM | – | CCOc1cc2c(cc1OC)C(c1ccc(-c3nnn(CC)n3)cc1)=N[C@H]1CCN(C)C[C@@H]21 (single isomer, unassigned) [Compound 9, (-)-(cis)-9-Ethoxy-8-methoxy-2-methyl-6-[4-(2H-2-ethyltetrazol-5-yl)phenyl]-1,2,3,4,4a,10b-hexahydrobenzo[c][1.6]naphthyridine] |
| 6.08 mol/l | 275 nM | – | CCOc1cc2c(cc1OC)[C@@H]1CN(C)CC[C@@H]1N=C2c1ccc(-c2nnn(CC)n2)cc1 (single isomer, unassigned) [Compound 10, (-)-cis-8-Ethoxy-9-methoxy-2-methyl-6-[4-(2H-2-ethyltetrazol-5-yl)-phenyl]-1,2,3,4,4a,10b-hexahydrobenzo[c][1.6]naphthyridine hydrochloride] |
| 7.40 mol/l | – | 5.66 mol/l | CCOc1cc2c(cc1OCC)[C@@H]1CN(C)CC[C@@H]1N=C2c1cccc(-c2nnn(CC)n2)c1 (single isomer, unassigned) [Compound 11, (-)-cis-8,9-Diethoxy-2-methyl-6-[3-(2H-2-ethyltetrazol-5-yl)-phenyl]-1,2,3,4,4a,10b-hexahydrobenzo[c][1,6]naphthyridine hydrochloride] |
| 7.82 mol/l | 708 nM | – | CCOc1cc2c(cc1OC)C(c1cccc(-c3nnn(CC)n3)c1)=N[C@H]1CCN(C)C[C@@H]21 (single isomer, unassigned) [Compound 12, (-)-cis-9-Ethoxy-8-methoxy-2-methyl-6-[3-(2H-2-ethyltetrazol-5-yl)-phenyl]-1,2,3,4,4a,10b-hexahydrobenzo[c][1.6]naphthyridine hydrochloride] |
| 8.24 mol/l | 631 nM | – | CCCCCCn1nnc(-c2ccc(C3=N[C@H]4CCN(C)C[C@H]4c4cc(OCC)c(OC)cc43)cc2)n1 (single isomer, unassigned) [Compound 15, (-)-cis-9-Ethoxy-8-methoxy-2-methyl-6-[4-(2H-2-hexyltetrazol-5-yl)-phenyl]-1,2,3,4,4a,10-hexahydrobenzo[c][1.6]naphthyridine hydrochloride] |
| 7.94 mol/l | 219 nM | – | CCCn1nnc(-c2ccc(C3=N[C@H]4CCN(C)C[C@H]4c4cc(OCC)c(OC)cc43)cc2)n1 (single isomer, unassigned) [Compound 16, (-)-cis-9-Ethoxy-8-methoxy-2-6-[4-(2H-2-propyltetrazol-5-yl)-phenyl]-1,2,3,4,4a,10b-hexahydrobenzo[c][1.6]naphthyridine hydrochloride] |
| 7.44 mol/l | 195 nM | – | CCOc1cc2c(cc1OCC)[C@@H]1CN(C)CC[C@@H]1N=C2c1ccc(-c2nn[nH]n2)cc1 (single isomer, unassigned) [Compound 17, (-)-cis-8.9-Diethoxy-2-methyl-6-[4-(1H- and 2H-2-tetrazol-5-yl)-phenyl]-1,2,3,4,4a,10b-hexahydrobenzo[c][1.6]naphthyridine] |
| 7.81 mol/l | 145 nM | – | CCOc1cc2c(cc1OC)C(c1ccc(-c3nn[nH]n3)cc1)=N[C@H]1CCN(C)C[C@@H]21 (single isomer, unassigned) [Compound 18, (-)-cis-9-Ethoxy-8-methoxy-2-methyl-6-[4-(1H- and 2H-2-tetrazol-5-yl)-phenyl]-1,2,3,4,4a,10b-hexahydrobenzo[c][1.6]naphthyridine] |
